Some results are limits rather than exact numbers.

By IC50 is commonly meant the concentration at which inhibition is half-maximal.

The test system of the test is IL-1β production in PMA-differentiated THP-1 cells. The test can be described thus: IL-1β production in PMA-differentiated THP-1 cells stimulated with gramicidin (hTHP-1 assay, 2% bovine serum; Bioassays 1 and 2). It counts as cell-based, human. The conditions noted are these: Homo sapiens, THP-1; hTHP-1 assay containing 2% bovine serum; Table 12, by Example #; read-out: Average IC50 of compounds in hTHP-1 assay. The procedure:
IL-1β Production in PMA-Differentiated THP-1 Cells Stimulated with Gramicidin.
Cell culture-THP-1 cells were purchased from the American Type Culture Collection and sub-cultured according to instructions from the supplier. Prior to experiments, cells were cultured in RPMI 1640 containing 10% heat inactivated FBS, penicillin (100 units/ml) and streptomycin (100 μg/ml), and maintained in log phase prior to experimental setup. Prior to the experiment THP-1 were treated with PMA (Phorbol 12-myristate 13-acetate) (10 μg/ml) for 24 hours. The day of the experiment the media was removed and attaching cells were treated with trypsin for 2 minutes, cells were then collected, washed with PBS (phosphate buffer saline), spin down, resuspended in 2% heat inactivated FBS with RPMI at a concentration of 1×10^6 cells/ml, and 100 ul was plated in a 96 well plate. Cells were incubated with compounds for 1 hours and then stimulated with Gramicidin (5 μM) (Enzo) for 2 hours. Cell free supernatant was collected and the production of IL-1β was evaluated by ELISA. Compounds were dissolved in dimethyl sulfoxide (DMSO) and added to the culture medium to achieve desired concentration (e.g. 100, 30, 10, 3, 1, 0.3 or 0.1 μM). A vehicle only control was run concurrently with each experiment. Final DMSO concentration was 1%.
THP-1 cells were purchased from the American Type Culture Collection and sub-cultured according to instructions from the supplier. Prior to experiments, cells were cultured in complete RPMI 1640 (containing 10% heat inactivated FBS, penicillin (100 units/ml) and streptomycin (100 μg/ml)), and maintained in log phase prior to experimental setup. Prior to the experiment THP-1 were treated with PMA (Phorbol 12-myristate 13-acetate) (20 ng/ml) for 16-18 hours. On the day of the experiment the media was removed and adherent cells were detached with trypsin for 5 minutes. Cells were then harvested, washed with complete RPMI 1640, spun down, resuspended in RPMI 1640 (containing 2% heat inactivated FBS, penicillin (100 units/ml) and streptomycin (100 μg/ml). The cells were plated in a 384-well plate at a density of 50,000 cells/well (final assay volume 50 μl). Compounds were dissolved in dimethyl sulfoxide (DMSO) and added to the culture medium to achieve desired concentration (e.g. 100, 33, 11, 3.7, 1.2, 0.41, 0.14, 0.046, 0.015, 0.0051, 0.0017 μM). Cells were incubated with compounds for 1 hour and then stimulated with gramicidin (5 μM) (Enzo) for 2 hours. Cell free supernatant was collected and the production of IL-10 was evaluated by HTRF (cisbio). A vehicle only control was run concurrently with each experiment. Final DMSO concentration was 0.38%.
Compounds tested with protocols 1 and 2 provided IC50 values that are within the variability of the assay.
Tables 12 and 13 show the biological activity of compounds in hTHP-1 assay containing 2% bovine serum: <1 μM=“++++”; ≥1 and <5 μM=“+++”; ≥5 and <15 μM=“++”; ≥15 and <60 μM=“+”.

For `CC(C)c1cc(F)cc(C(C)C)c1CC(=O)NS(=O)(=O)c1ccc(C(C)(C)O)s1` [Example 13, 2-(4-fluoro-2,6-diisopropylphenyl)-N-(5-(2-hydroxypropan-2-yl)thiophen-2-ylsulfonyl)acetamide], the IC50 is 1 to 5 µM.
`CC(C)c1cccc(C(C)C)c1CC(=O)NS(=O)(=O)c1cc(C2(O)CC2)cs1` [Example 14, 2-(2,6-diisopropylphenyl)-N-(4-(1-hydroxycyclopropyl)thiophen-2-ylsulfonyl)acetamide]: the IC50 lay in the range of 1 to 5 µM.
For `CC(C)c1cc(F)cc(C(C)C)c1CC(=O)NS(=O)(=O)c1cc(C2(O)CC2)cs1` [Example 15, 2-(4-fluoro-2,6-diisopropylphenyl)-N-(4-(1-hydroxycyclopropyl)thiophen-2-ylsulfonyl)acetamide] the value was 1 to 5 µM; for `CC(C)c1cc(C#N)cc(C(C)C)c1CC(=O)NS(=O)(=O)c1cc(C2(O)CC2)cs1` [Example 16, 2-(4-cyano-2,6-diisopropylphenyl)-N-(4-(1-hydroxycyclopropyl)thiophen-2-ylsulfonyl)acetamide], < 1 µM; for `Cc1sc(S(=O)(=O)NC(=O)Cc2c(C(C)C)cc(F)cc2C(C)C)cc1C(C)(C)O` [Example 17, 2-(4-fluoro-2,6-diisopropylphenyl)-N-(4-(2-hydroxypropan-2-yl)-5-methylthiophen-2-ylsulfonyl)acetamide], 1 to 5 µM.
For `Cc1oc(S(=O)(=O)NC(=O)Cc2c(C(C)C)cc(F)cc2C(C)C)cc1C(C)(C)O` [Example 18, 2-(4-fluoro-2,6-diisopropylphenyl)-N-(4-(2-hydroxypropan-2-yl)-5-methylfuran-2-ylsulfonyl)acetamide] the value was 1 to 5 µM; for `Cc1c(C(C)(C)O)csc1S(=O)(=O)NC(=O)Cc1c(C(C)C)cc(F)cc1C(C)C` [Example 19, 2-(4-fluoro-2,6-diisopropylphenyl)-N-(4-(2-hydroxypropan-2-yl)-3-methylthiophen-2-ylsulfonyl)acetamide], 1 to 5 µM.
With `CC(C)c1c(F)c(Cl)c(F)c(C(C)C)c1CC(=O)NS(=O)(=O)c1cc(C(C)(C)O)co1` [Example 20, 2-(4-chloro-3,5-difluoro-2,6-diisopropylphenyl)-N-(4-(2-hydroxypropan-2-yl)furan-2-ylsulfonyl)acetamide], the IC50 was < 1 µM.
For `CC(C)c1cccc(C(C)C)c1CC(=O)NS(=O)(=O)c1ccc(C(C)(C)O)cc1` [Example 21, 2-(2,6-diisopropylphenyl)-N-(4-(2-hydroxypropan-2-yl)phenylsulfonyl)acetamide] the value was 1 to 5 µM; for `CC(C)c1cccc(C(C)C)c1CC(=O)NS(=O)(=O)c1cc(-c2ccncc2)cc(C(C)(C)O)c1` [Example 22, 2-(2,6-diisopropylphenyl)-N-(3-(2-hydroxypropan-2-yl)-5-(pyridin-4-yl)phenylsulfonyl)acetamide], 15 to 60 µM; for `CC(C)c1cccc(C(C)C)c1CC(=O)NS(=O)(=O)c1cc(-c2ccccc2)cc(C(C)(C)O)c1` [Example 23, 2-(2,6-diisopropylphenyl)-N-(5-(2-hydroxypropan-2-yl)biphenyl-3-ylsulfonyl)acetamide], 1 to 5 µM.
The same measure for `CC(C)c1cccc(C(C)C)c1CC(=O)NS(=O)(=O)c1cc(C(C)(C)O)cc(C(C)(C)O)c1` [Example 24, N-(3,5-bis(2-hydroxypropan-2-yl)phenylsulfonyl)-2-(2,6-diisopropylphenyl)acetamide]: 15 to 60 µM.
Take `CC(C)c1cc(F)cc(C(C)C)c1CC(=O)NS(=O)(=O)c1cccc(C(C)(C)O)c1` [Example 25, 2-(4-fluoro-2,6-diisopropylphenyl)-N-(3-(2-hydroxypropan-2-yl)phenylsulfonyl)acetamide]: the IC50 fell in the range of 1 to 5 µM.
`CC(C)c1cc(C#N)cc(C(C)C)c1CC(=O)NS(=O)(=O)c1cccc(C(C)(C)O)c1` [Example 26, 2-(4-cyano-2,6-diisopropylphenyl)-N-(3-(2-hydroxypropan-2-yl)phenylsulfonyl)acetamide]: the IC50 is 1 to 5 µM.
The same measure for `CC(C)c1cc(F)cc(C(C)C)c1CC(=O)NS(=O)(=O)c1cc(Cl)cc(C(C)(C)O)c1` [Example 27, N-(3-chloro-5-(2-hydroxypropan-2-yl)phenylsulfonyl)-2-(4-fluoro-2,6-diisopropylphenyl)acetamide]: 1 to 5 µM; for `CC(C)c1cc(C#N)cc(C(C)C)c1CC(=O)NS(=O)(=O)c1cc(Cl)cc(C(C)(C)O)c1` [Example 28, N-(3-chloro-5-(2-hydroxypropan-2-yl)phenylsulfonyl)-2-(4-cyano-2,6-diisopropylphenyl)acetamide]: 1 to 5 µM; for `CC(C)c1cc(F)cc(C(C)C)c1CC(=O)NS(=O)(=O)c1cc(-c2ccncc2)cc(C(C)(C)O)c1` [Example 29, 2-(4-fluoro-2,6-diisopropylphenyl)-N-(3-(2-hydroxypropan-2-yl)-5-(pyridin-4-yl)phenylsulfonyl)acetamide]: 15 to 60 µM.
With `CC(C)c1cc(F)cc(C(C)C)c1CC(=O)NS(=O)(=O)c1cc(C(C)(C)O)cc(C(C)(C)O)c1` [Example 30, N-(3,5-bis(2-hydroxypropan-2-yl)phenylsulfonyl)-2-(4-fluoro-2,6-diisopropylphenyl)acetamide], the IC50 lay within 5 to 15 µM.
For `CC(C)c1cc(C#N)cc(C(C)C)c1CC(=O)NS(=O)(=O)c1cc(C(C)(C)O)cc(C(C)(C)O)c1` [Example 31, N-(3,5-bis(2-hydroxypropan-2-yl)phenylsulfonyl)-2-(4-cyano-2,6-diisopropylphenyl)acetamide] the value was 5 to 15 µM.
As to `CC(C)c1cc(F)cc(C(C)C)c1CC(=O)NS(=O)(=O)c1cc(-c2ccccc2)cc(C(C)(C)O)c1` [Example 32, 2-(4-fluoro-2,6-diisopropylphenyl)-N-(5-(2-hydroxypropan-2-yl)biphenyl-3-ylsulfonyl)acetamide], the IC50 lay within 5 to 15 µM.
The same measure for `CC(C)c1cc(C#N)cc(C(C)C)c1CC(=O)NS(=O)(=O)c1cc(-c2ccccc2)cc(C(C)(C)O)c1` [Example 33, 2-(4-cyano-2,6-diisopropylphenyl)-N-(5-(2-hydroxypropan-2-yl)biphenyl-3-ylsulfonyl)acetamide]: 5 to 15 µM; for `CC(C)c1cc(F)cc(C(C)C)c1CC(=O)NS(=O)(=O)c1ccc(C(C)(C)O)cc1` [Example 34, 2-(4-fluoro-2,6-diisopropylphenyl)-N-(4-(2-hydroxypropan-2-yl)phenylsulfonyl)acetamide]: 1 to 5 µM.
The same measure for `CC(C)c1cc(C#N)cc(C(C)C)c1CC(=O)NS(=O)(=O)c1ccc(C(C)(C)O)cc1` [Example 35, 2-(4-cyano-2,6-diisopropylphenyl)-N-(4-(2-hydroxypropan-2-yl)phenylsulfonyl)acetamide]: 1 to 5 µM; for `CC(C)c1cc(F)cc(C(C)C)c1CC(=O)NS(=O)(=O)c1ccc(C(C)(C)O)nc1` [Example 36, 2-(4-fluoro-2,6-diisopropylphenyl)-N-(6-(2-hydroxypropan-2-yl)pyridin-3-ylsulfonyl)acetamide]: 1 to 5 µM.
In the case of `CC(C)c1cc(C#N)cc(C(C)C)c1CC(=O)NS(=O)(=O)c1ccc(C(C)(C)O)nc1` [Example 37, 2-(4-cyano-2,6-diisopropylphenyl)-N-(6-(2-hydroxypropan-2-yl)pyridin-3-ylsulfonyl)acetamide], the IC50 was 5 to 15 µM.

(Values after patent US11447460B2, “Compounds and compositions for treating conditions associated with NLRP activity” (Novartis AG, priority 2016, dated 2022).)
